# Results reported in PubChem BioAssay (NCI).
# “And” between values parts separate entries of the source, which are not always exact repeats. Equal values may be shown once.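 Growth conditions: 96-well plates. Treatment: test compound, 48 hours, 5 concentrations. Analysis: linear interpolation between bracketing concentrations; unreached endpoints set to highest concentration. At the GI50, growth is halved. TGI: concentration producing complete growth inhibition.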
# Legend:
# Test in all cases: growth of human tumour cells (NCI), 48 h
# [1] = tested on: MDA-MB-435
# [2] = tested on: DMS 273 small cell lung
# [3] = tested on: SNB-78 CNS
# [4] = tested on: DLD-1 colon
# [5] = tested on: KM20L2 colon
# [6] = tested on: LXFL 529 NSCLC
# [7] = tested on: XF 498 CNS
# [8] = tested on: DMS 114 small cell lung
compound,measurement,setting,value
Fc1cccc(Cl)c1/C=N\N=C1c2ccccc2-c2ccccc21,TGI,[1],> 100 µM
Nc1ccc(S(=O)(=O)NCc2nccs2)cc1,TGI,[1],38.8 µM
Oc1ccccc1-c1nc2c3ccccc3c3ccccc3c2[nH]1,GI50,[1],6230 nM
same,TGI,[1],18.7 µM
COC(=O)c1c(-c2ccccc2)sc(-c2cccc3ccccc23)c1C(=O)OC,TGI,[2],> 100 µM
same,TGI,[3],> 100 µM
same,TGI,[4],> 100 µM
same,TGI,[5],> 100 µM
same,TGI,[6],> 100 µM
CC1CCN(CC(=O)N2c3ccccc3Sc3cc4ccccc4cc32)CC1,TGI,[1],> 100 µM
C=C=C(C(=O)OC)S(=O)c1ccc([N+](=O)[O-])cc1[N+](=O)[O-] (stereo not drawn),TGI,[2],64.1 µM
same,TGI,[4],29.7 µM
same,TGI,[7],> 71.2 µM
same,TGI,[8],45.6 µM
same,TGI,[5],63.8 µM
same,TGI,[6],38 µM
Cc1cc(N/N=C/c2nc(-c3ccc(Cl)cc3)oc2C)c2cc(Cl)ccc2n1,GI50,[1],1680 nM
same,TGI,[1],3.44 µM
N#C[C@@H]1C(n2ccc(N)nc2=O)O[C@H](CO)[C@H]1O (stereo partly drawn),GI50,[1],> 73000 nM
same,TGI,[1],> 100 µM
COc1cc(Cn2c(-c3nonc3N)nc3ccccc32)ccc1C,GI50,[1],168 nM
same,TGI,[1],0.642 µM
C=C(C=O)CCCC(C)[C@@H]1CCC23CC12CCC1[C@@]2(C)CCC(OC(C)=O)C(C)(C)C2CC(OC2OC(COC(C)=O)C(O)C(O)C2O)[C@]13C (stereo partly drawn),TGI,[2],13.3 µM
same,TGI,[3],3.4 µM
same,TGI,[5],12.8 µM
same,TGI,[6],8.44 µM
CC(C)[C@H]1C(=O)N[C@@H](CCCN=C(N)N)C(=O)NCC(=O)N[C@@H](CC(=O)O)C(=O)N[C@H](Cc2ccccc2)C(=O)N1C,GI50,[1],289 nM
same,TGI,[1],0.895 µM
CCOC(=O)c1cc(/C=C/C(C)=C/C(=O)OC)n(C)c1C,TGI,[2],> 100 µM
same,TGI,[3],> 100 µM
same,TGI,[4],> 100 µM
same,TGI,[7],> 100 µM
same,TGI,[5],> 100 µM
same,TGI,[6],> 100 µM
Cn1c(=O)c2c(ncn2CN2CCN(Cn3cnc4c3c(=O)n(C)c(=O)n4C)CC2)n(C)c1=O,TGI,[1],> 100 µM
O=[N+]([O-])c1ccc2c(c1)[O][Sn]([I])([I])[O]2,GI50,[2],71.1 µM
same,TGI,[2],> 100 µM
same,GI50,[3],> 100000 nM
same,TGI,[3],> 100 µM
same,GI50,[4],> 100 µM
same,TGI,[4],> 100 µM
same,GI50,[8],> 100 µM
same,TGI,[8],> 100 µM
same,GI50,[5],> 100000 nM
same,TGI,[5],> 100 µM
COC1CC(OC(=O)c2ccccc2)C(OC(=O)c2ccccc2)C(C)O1 (stereo not drawn),TGI,[1],> 100 µM
CCOc1c(Cl)cc(CNC(C)C(O)c2ccccc2)cc1OC (stereo not drawn),GI50,[1],16200 nM
same,TGI,[1],32.3 µM
O=c1[nH]c(=O)n(C2OC3COC2C3O)cc1F (stereo not drawn),TGI,[2],> 100 µM
same,TGI,[3],> 100 µM
same,TGI,[4],> 100 µM
same,TGI,[7],> 100 µM
same,TGI,[5],> 100 µM
same,TGI,[6],> 100 µM
C1=CC=C2NCCOCCNC3=CC=CC=CC3=NCCOCCN=C2C=C1,TGI,[2],> 100 µM
same,TGI,[3],> 100 µM
same,TGI,[4],> 100 µM
same,TGI,[8],> 100 µM
same,TGI,[5],79.3 µM
same,TGI,[6],> 100 µM
NC(=O)c1ccc(C2C3=C(CCCC3=O)OC3=C2C(=O)c2ccccc2C3=O)cc1 (stereo not drawn),GI50,[1],179 nM
same,TGI,[1],0.339 µM
O=C1CC(=O)OC(c2ccc([N+](=O)[O-])cc2)O1,GI50,[1],2590 nM
same,TGI,[1],8.62 µM
CC(C)(C)NC(=O)[C@H]1C[C@H]2CCCC[C@H]2CN1C[C@@H](O)[C@H](Cc1ccccc1)NC(=O)[C@H](CC(N)=O)NC(=O)c1ccc2ccccc2n1,GI50,[1],11900 nM
same,TGI,[1],32.8 µM
C[C@]12CC[C@@H]3c4ccc(O)cc4C(O)C[C@H]3[C@@H]1CCC2=O (stereo partly drawn),GI50,[1],> 100000 nM
same,TGI,[1],> 100 µM
C[N+]1(C)C/C(=C\c2ccncc2)C(=O)/C(=C/c2ccncc2)C1,TGI,[2],> 100 µM
same,TGI,[3],> 100 µM
same,TGI,[4],> 100 µM
same,TGI,[8],> 100 µM
same,TGI,[5],> 100 µM
same,TGI,[6],> 100 µM
Cc1ccc2c(c1)C(c1cccc3ccccc13)OC2=O (stereo not drawn),TGI,[2],> 100 µM
same,TGI,[4],> 100 µM
same,TGI,[8],> 100 µM
same,TGI,[5],> 100 µM
same,TGI,[6],> 100 µM
Cc1cc(=O)oc2cc(O)c(CN(C)CC(=O)O)cc12,TGI,[1],> 100 µM
O=C(O)CSc1ncccc1[N+](=O)[O-],TGI,[1],> 100 µM
CSc1ccc(/C=C2\C=C(CC(=O)NCc3ccc(C(=O)c4ccccc4)cc3)c3cc(F)ccc32)cc1,GI50,[1],< 11.2 nM
same,TGI,[1],0.0515 µM
CCN(CC)CCNc1n[n+]([O-])c2ccccc2[n+]1[O-],TGI,[1],50 µM and > 100 µM
CC(C)Oc1cc(O)c2c(c1)OCC=C2CCC(=O)O,TGI,[1],66 µM
COc1ccc(C2CC(n3nnnc3-c3ccccc3)=NN2)cc1 (stereo not drawn),GI50,[1],974 nM
same,TGI,[1],15.6 µM
O=[N+]([O-])c1nccn1COCCBr,TGI,[4],> 100 µM
same,TGI,[7],> 100 µM
same,TGI,[8],> 100 µM
same,TGI,[5],> 100 µM
same,TGI,[6],> 100 µM
COc1cc2nc(-c3ccc(C(F)(F)F)cc3)cc(OCCCN3CCCCC3)c2cc1OC,GI50,[1],1230 nM
same,TGI,[1],7.08 µM
CCC(c1cccc(O)c1)C(CC)c1cccc(O)c1 (stereo not drawn),GI50,[1],2150 nM
same,TGI,[1],6.44 µM
Cc1cc(-c2nnc3n2CCCCC3)c(C)n1-c1ccc(Cl)c(Cl)c1,GI50,[1],10300 nM
same,TGI,[1],26.9 µM
OCC1OC(n2cnc3c(/C=C(/O)c4ccccc4)ncnc32)C(O)C1O (stereo not drawn),TGI,[1],> 100 µM
COC(=O)CCCCCN=Cc1c(O)c(O)c(C(C)C)c2cc(C)c(-c3c(C)cc4c(C(C)C)c(O)c(O)c(C=NCCCCCC(=O)OC)c4c3O)c(O)c12,GI50,[1],1820 nM
same,TGI,[1],> 32.5 µM
O=C1NC2(CN3CCC2CC3)C(=O)N1CN(Cc1ccccc1)c1ccccc1 (stereo not drawn),TGI,[1],> 100 µM
FCc1ncc(-c2ccc(C(F)(F)F)cc2)c(NC2CCCCCC2)n1,GI50,[1],> 10000 nM
same,TGI,[1],> 10 µM
COC(=O)CCC1=C(C)/C(=C/c2[nH]c(-c3ccc[nH]3)cc2OC)N=C1C,GI50,[1],454 nM
same,TGI,[1],2.5 µM
CCN(CCNc1ccc(C)c2sc3ccccc3c(=O)c12)CC(C)(C)O,GI50,[1],6510 nM
same,TGI,[1],28.6 µM
c1nnc(NCNc2nncs2)s1,TGI,[1],> 100 µM
CN1C(=O)C(Cl)(C(Cl)(Cl)S(=O)(=O)O)C(=O)c2ccccc21 (stereo not drawn),TGI,[4],> 100 µM
same,TGI,[5],40.6 µM
same,TGI,[6],> 100 µM
O=C([CH-]C(=O)C(F)(F)F)c1ccccc1.O=C([CH-]C(=O)C(F)(F)F)c1ccccc1.O=C([CH-]C(=O)C(F)(F)F)c1ccccc1.O=C([CH-]C(=O)C(F)(F)F)c1ccccc1.[Eu+3].c1ccncc1,GI50,[2],8.87 µM
same,TGI,[2],> 100 µM
same,GI50,[4],7.12 µM
same,TGI,[4],> 100 µM
same,GI50,[5],26700 nM
same,TGI,[5],> 100 µM
same,GI50,[6],4.2 µM
same,TGI,[6],> 100 µM
O=C1c2ccccc2-n2c1nc1ccccc1c2=O,TGI,[1],3.44 µM
C/C(=N\NC(N)=S)c1nc2ccc(Cl)cc2[nH]1,GI50,[1],2950 nM
same,TGI,[1],24.6 µM
COc1cc(Br)c(C=Nc2cccc3ccc(OS(=O)(=O)c4cccc([N+](=O)[O-])c4)cc23)cc1OC,TGI,[3],72.9 µM
same,TGI,[4],> 100 µM
same,TGI,[8],> 100 µM
same,TGI,[6],> 100 µM
Cc1ccc(S(=O)(=O)N=Nc2c(O)[nH]c3c(Cl)cc(Cl)cc23)cc1,TGI,[1],> 100 µM
CCOC(=O)CC1NC(=O)CS1 (stereo not drawn),TGI,[2],> 100 µM
same,TGI,[3],> 100 µM
same,TGI,[4],> 100 µM
same,TGI,[8],57.8 µM
same,TGI,[5],> 100 µM
same,TGI,[6],> 100 µM
CCN(CC)CCCC(C)Nc1c2ccc(C)cc2nc2ccc(OC)cc12 (stereo not drawn),GI50,[1],1600 nM
same,TGI,[1],3.38 µM
BrC1(Br)C2/C=C\CCCCC21 (stereo not drawn),TGI,[2],> 100 µM
same,TGI,[3],> 100 µM
same,TGI,[7],> 100 µM
same,TGI,[5],> 100 µM
same,TGI,[6],> 100 µM
N.N.N.N.N.N.O=N[O-].[Br-].[Co+3].[Co+3].[OH3+].[OH3+],GI50,[3],> 100000 nM
same,TGI,[3],> 100 µM
same,GI50,[4],> 100 µM
same,TGI,[4],> 100 µM
same,GI50,[6],> 100 µM
same,TGI,[6],> 100 µM
O=C1CCCN1CC#CCN1CCCC1,GI50,[1],> 100000 nM
same,TGI,[1],> 100 µM
CNC(=S)N/N=C/c1ccc([N+](=O)[O-])s1,TGI,[1],> 10 µM
CCOc1ccccc1NC(=O)CCc1nc(=S)[nH][nH]1,TGI,[3],> 100 µM
same,TGI,[4],> 100 µM
same,TGI,[8],> 100 µM
same,TGI,[6],> 100 µM
O=C1C2Cc3ccccc3CN2C(=O)N1CCN1CCCC1 (stereo not drawn),TGI,[2],> 100 µM
same,TGI,[4],> 100 µM
same,TGI,[7],> 100 µM
same,TGI,[8],> 100 µM
same,TGI,[5],> 100 µM
same,TGI,[6],> 100 µM
CCCCCCN(CCCCCC)CC(O)c1ccc2c3c(cccc13)CC2 (stereo not drawn),GI50,[1],3110 nM
same,TGI,[1],15.2 µM
COc1cc(S(C)(=O)=O)ccc1Nc1nc2ccc(-c3ccc(NC(=O)[C@H](C)c4ccc(F)cc4)cc3)cn2n1,GI50,[1],> 100000 nM
same,TGI,[1],> 100 µM
COc1ccc(-c2cn[nH]c2-c2cc(OC)c3c(c2)OCCO3)cc1,GI50,[1],26.6 nM
same,TGI,[1],0.0977 µM
O=C1Nc2cccc3cc(NCC(O)CCl)cc1c23 (stereo not drawn),TGI,[1],> 100 µM
O=C1CCC(O)=C1O,TGI,[2],> 100 µM
same,TGI,[4],> 100 µM
same,TGI,[7],> 100 µM
same,TGI,[8],> 100 µM
same,TGI,[5],> 100 µM
same,TGI,[6],> 100 µM
CC[C@@]1(O)C(=O)OCc2c1cc1n(c2=O)Cc2cc3cc(N)ccc3nc2-1,GI50,[1],120 nM and 18.8 nM
same,TGI,[1],0.663 µM and 0.133 µM
same,GI50,[2],0.00263 µM
same,TGI,[2],0.129 µM and 0.179 µM
same,GI50,[3],46.3 nM and 212 nM
same,GI50,[4],0.0885 µM and 0.346 µM
same,TGI,[4],> 100 µM
same,GI50,[7],149 nM and 138 nM
same,TGI,[7],1.39 µM and 0.864 µM
same,GI50,[5],31.4 nM and 37.3 nM
same,TGI,[5],0.854 µM and 0.547 µM
same,GI50,[6],0.204 µM
same,TGI,[6],3.15 µM
COc1ccc(Cl)cc1Nc1nc(C(F)(F)F)ccc1C(=O)N/N=C/c1cc(OC)c(OC)c(OC)c1,GI50,[1],2410 nM
same,TGI,[1],7.72 µM
